Results from patent publication US12448392B2, “Spiropiperidine derivatives” (89BIO LTD, priority 2016, dated 2025).
Where two headings read alike, the source gives them in different places.

Target: T1, recombinant human baculovirus-expressed GST-tagged FASN (Homo sapiens, UniProt P49327)
T1 construct: GST
Test: biochemical

[1] = 5 nM FASN, 150 μM NADPH, 10 μM acetyl-CoA, 25 μM malonyl-CoA, 90 minutes incubation, read-out: IC50 data for Compounds of Formula I, Activity

T1 sequence (P49327 whole entry): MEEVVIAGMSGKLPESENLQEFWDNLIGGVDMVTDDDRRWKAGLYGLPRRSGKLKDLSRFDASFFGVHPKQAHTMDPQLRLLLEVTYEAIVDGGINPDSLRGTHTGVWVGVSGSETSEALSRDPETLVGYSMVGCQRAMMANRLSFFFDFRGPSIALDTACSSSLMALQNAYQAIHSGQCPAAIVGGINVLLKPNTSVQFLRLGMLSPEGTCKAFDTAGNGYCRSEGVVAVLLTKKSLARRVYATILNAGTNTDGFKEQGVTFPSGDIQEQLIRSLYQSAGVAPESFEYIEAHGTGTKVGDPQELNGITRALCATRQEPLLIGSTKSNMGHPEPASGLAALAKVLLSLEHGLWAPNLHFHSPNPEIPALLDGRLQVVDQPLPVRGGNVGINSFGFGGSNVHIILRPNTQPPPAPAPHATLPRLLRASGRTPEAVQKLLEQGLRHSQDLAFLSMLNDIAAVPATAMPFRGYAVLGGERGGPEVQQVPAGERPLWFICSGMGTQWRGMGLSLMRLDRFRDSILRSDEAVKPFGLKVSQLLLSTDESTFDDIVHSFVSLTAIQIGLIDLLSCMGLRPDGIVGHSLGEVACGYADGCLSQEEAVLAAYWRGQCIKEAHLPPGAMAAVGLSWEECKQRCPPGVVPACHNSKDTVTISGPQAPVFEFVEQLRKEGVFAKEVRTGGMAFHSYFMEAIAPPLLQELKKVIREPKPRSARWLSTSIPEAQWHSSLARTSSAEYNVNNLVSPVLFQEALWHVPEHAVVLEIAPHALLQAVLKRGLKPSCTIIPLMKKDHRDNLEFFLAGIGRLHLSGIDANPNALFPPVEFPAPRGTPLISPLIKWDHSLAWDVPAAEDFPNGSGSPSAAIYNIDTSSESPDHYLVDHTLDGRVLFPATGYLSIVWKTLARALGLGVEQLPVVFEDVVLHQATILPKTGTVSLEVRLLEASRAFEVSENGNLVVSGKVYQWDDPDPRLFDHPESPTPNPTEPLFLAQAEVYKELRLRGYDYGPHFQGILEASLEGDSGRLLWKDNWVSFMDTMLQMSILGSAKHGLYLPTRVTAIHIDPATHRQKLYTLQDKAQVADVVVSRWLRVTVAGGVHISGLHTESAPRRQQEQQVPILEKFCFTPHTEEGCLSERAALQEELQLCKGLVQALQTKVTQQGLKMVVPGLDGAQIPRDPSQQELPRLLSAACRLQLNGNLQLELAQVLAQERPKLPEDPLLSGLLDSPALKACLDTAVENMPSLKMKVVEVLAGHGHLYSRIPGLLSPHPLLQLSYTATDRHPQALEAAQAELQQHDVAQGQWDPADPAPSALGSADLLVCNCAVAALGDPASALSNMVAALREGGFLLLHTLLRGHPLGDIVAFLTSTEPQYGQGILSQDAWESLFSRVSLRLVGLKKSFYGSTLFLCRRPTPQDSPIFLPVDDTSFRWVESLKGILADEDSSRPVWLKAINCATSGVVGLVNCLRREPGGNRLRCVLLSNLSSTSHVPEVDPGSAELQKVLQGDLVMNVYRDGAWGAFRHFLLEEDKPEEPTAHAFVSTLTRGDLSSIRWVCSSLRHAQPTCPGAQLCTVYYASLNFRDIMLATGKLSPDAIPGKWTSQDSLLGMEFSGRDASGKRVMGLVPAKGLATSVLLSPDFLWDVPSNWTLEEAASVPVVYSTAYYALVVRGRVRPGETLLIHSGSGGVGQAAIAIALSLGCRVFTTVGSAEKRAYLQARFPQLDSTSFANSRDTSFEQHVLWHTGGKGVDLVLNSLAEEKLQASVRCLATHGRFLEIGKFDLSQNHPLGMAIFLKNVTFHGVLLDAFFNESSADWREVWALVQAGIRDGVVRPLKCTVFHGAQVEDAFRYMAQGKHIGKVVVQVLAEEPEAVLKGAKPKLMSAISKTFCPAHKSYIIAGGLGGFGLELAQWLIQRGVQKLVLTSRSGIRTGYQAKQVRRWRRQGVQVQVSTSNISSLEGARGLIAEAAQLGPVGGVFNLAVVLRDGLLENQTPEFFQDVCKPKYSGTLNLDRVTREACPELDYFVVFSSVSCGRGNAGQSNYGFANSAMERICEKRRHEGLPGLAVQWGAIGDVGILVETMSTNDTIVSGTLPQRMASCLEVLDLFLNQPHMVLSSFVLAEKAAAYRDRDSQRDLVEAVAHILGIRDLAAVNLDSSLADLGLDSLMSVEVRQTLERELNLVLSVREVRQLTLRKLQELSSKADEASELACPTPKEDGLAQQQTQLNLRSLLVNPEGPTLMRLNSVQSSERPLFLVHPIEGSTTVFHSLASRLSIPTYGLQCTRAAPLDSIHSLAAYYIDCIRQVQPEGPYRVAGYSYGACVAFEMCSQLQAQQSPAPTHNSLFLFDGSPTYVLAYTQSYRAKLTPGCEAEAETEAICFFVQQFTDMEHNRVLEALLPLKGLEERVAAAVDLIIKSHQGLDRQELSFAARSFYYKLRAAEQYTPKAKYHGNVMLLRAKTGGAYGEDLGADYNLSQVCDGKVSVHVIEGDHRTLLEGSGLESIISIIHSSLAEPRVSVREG

| SMILES | IC50 [nM] | IC50 [1] [nM] |
| --- | --- | --- |
| CONC(=O)N1CCC2(CC1)OCc1cc(-c3ccc4ccnn4c3C)ccc1O2 [Example 128, N-Methoxy-6-(7-methylpyrazolo[1,5-a]pyridin-6-yl)spiro[4H-1,3-benzodioxine-2,4′-piperidine]-1′-carboxamide] | 1 to 99 |  |
| CCONC(=O)N1CCC2(CC1)OCc1cc(-c3ccc4ccnn4c3C)ccc1O2 [Example 129, N-Ethoxy-6-(7-methylpyrazolo[1,5-a]pyridin-6-yl)spiro[4H-1,3-benzodioxine-2,4′-piperidine]-1′-carboxamide] | 1 to 99 |  |
| Cc1c(-c2ccc3c(c2)COC2(CCN(C(=O)NOC(C)C)CC2)O3)ccc2ccnn12 [Example 130, N-Isopropoxy-6-(7-methylpyrazolo[1,5-a]pyridin-6-yl)spiro[4H-1,3-benzodioxine-2,4′-piperidine]-1′-carboxamide] | 1 to 99 |  |
| NC(=O)N1CCC2(CC1)OCc1cc(-c3ccc4cccnc4c3Cl)ccc1O2 [Example 131, 6-(8-Chloro-7-quinolyl)spiro[4H-1,3-benzodioxine-2,4′-piperidine]-1′-carboxamide] | 100 to 999 |  |
| Cc1c(-c2ccc3c(c2)COC2(CCN(C(N)=O)CC2)O3)cnc2ccccc12 [Example 132, 6-(4-Methyl-3-quinolyl)spiro[4H-1,3-benzodioxine-2,4′-piperidine]-1′-carboxamide] | 100 to 999 |  |
| CONC(=O)N1CCC2(CC1)OCc1cc(-c3cnc4ccccc4c3C)ccc1O2 [Example 133, N-Methoxy-6-(4-methyl-3-quinolyl)spiro[4H-1,3-benzodioxine-2,4′-piperidine]-1′-carboxamide] | 1 to 99 |  |
| CONC(=O)N1CCC2(CC1)OCc1cc(-c3ccc4cccnc4c3Cl)ccc1O2 [Example 134, 6-(8-Chloro-7-quinolyl)-N-methoxy-spiro[4H-1,3-benzodioxine-2,4′-piperidine]-1′-carboxamide] | 1 to 99 |  |
| CCONC(=O)N1CCC2(CC1)OCc1cc(-c3ccc4cccnc4c3Cl)ccc1O2 [Example 135, 6-(8-Chloro-7-quinolyl)-N-ethoxy-spiro[4H-1,3-benzodioxine-2,4′-piperidine]-1′-carboxamide] | 1 to 99 |  |
| O=C(NO)N1CCC2(CC1)OCc1cc(-c3ccc4cccnc4c3Cl)ccc1O2 [Example 136, 6-(8-Chloro-7-quinolyl)spiro[4H-1,3-benzodioxine-2,4′-piperidine]-1′-carbohydroxamic acid] | 100 to 999 |  |
| CCOC(=O)N1CCC2(CC1)OCc1cc(-c3ccc4cccnc4c3Cl)ccc1O2 [Example 137, Ethyl 6-(8-chloro-7-quinolyl)spiro[4H-1,3-benzodioxine-2,4′-piperidine]-1′-carboxylate] | 1000 to 10000 |  |
| CCOC(=O)N1CCC2(CC1)OCc1cc(-c3cnc4ccccc4c3C)ccc1O2 [Example 138, Ethyl 6-(4-methyl-3-quinolyl)spiro[4H-1,3-benzodioxine-2,4′-piperidine]-1′-carboxylate] | 100 to 999 |  |
| CCONC(=O)N1CCC2(CC1)OCc1cc(-c3cnc4ccccc4c3C)ccc1O2 [Example 139, N-Ethoxy-6-(4-methyl-3-quinolyl)spiro[4H-1,3-benzodioxine-2,4′-piperidine]-1′-carboxamide] | 1 to 99 |  |
| Cc1c(-c2ccc3c(c2)COC2(CCN(C(=O)NO)CC2)O3)cnc2ccccc12 [Example 140, 6-(4-Methyl-3-quinolyl)spiro[4H-1,3-benzodioxine-2,4′-piperidine]-1′-carbohydroxamic acid] | 1000 to 10000 |  |
| Cc1c(-c2ccc3c(c2)CCC2(CCN(C(=O)NO)CC2)O3)ccc2nccn12 [Example 141, 6-(5-Methylimidazo[1,2-a]pyridin-6-yl)spiro[chromane-2,4′-piperidine]-1′-carbohydroxamic acid] |  | 1000 to 10000 |
| NC(=O)N1CCC2(CC1)OCc1cc(-c3cc4ccccc4cn3)ccc1O2 [Example 142, 6-(3-Isoquinolyl)spiro[4H-1,3-benzodioxine-2,4′-piperidine]-1′-carboxamide] | 1000 to 10000 |  |
| NC(=O)N1CCC2(CCc3cc(-c4cc5ccccc5cn4)ccc3O2)CC1 [Example 143, 6-(3-Isoquinolyl)spiro[chromane-2,4′-piperidine]-1′-carboxamide] |  | 1000 to 10000 |
| O=C(NOC1CCCCO1)N1CCC2(CC1)OCc1cc(-c3cc4ccccc4cn3)ccc1O2 (stereo not shown) [Example 144, 6-(3-Isoquinolyl)-N-tetrahydropyran-2-yloxy-spiro[4H-1,3-benzodioxine-2,4′-piperidine]-1′-carboxamide] | 100 to 999 |  |
| CCONC(=O)N1CCC2(CC1)OCc1cc(-c3cc4ccccc4cn3)ccc1O2 [Example 145, N-Ethoxy-6-(3-isoquinolyl)spiro[4H-1,3-benzodioxine-2,4′-piperidine]-1′-carboxamide] | 1 to 99 |  |
| O=C(NOC1CCCCO1)N1CCC2(CCc3cc(-c4cc5ccccc5cn4)ccc3O2)CC1 (stereo not shown) [Example 146, 6-(3-Isoquinolyl)-N-tetrahydropyran-2-yloxy-spiro[chromane-2,4′-piperidine]-1′-carboxamide] |  | 100 to 999 |
| CONC(=O)N1CCC2(CC1)OCc1cc(-c3cc4ccccc4cn3)ccc1O2 [Example 147, 6-(3-Isoquinolyl)-N-methoxy-spiro[4H-1,3-benzodioxine-2,4′-piperidine]-1′-carboxamide] | 1 to 99 |  |

| SMILES | IC50 [nM] | IC50 [1] [nM] |
| --- | --- | --- |
| CONC(=O)N1CCC2(CCc3cc(-c4cc5ccccc5cn4)ccc3O2)CC1 [Example 148, 6-(3-Isoquinolyl)-N-methoxy-spiro[chromane-2,4′-piperidine]-1′-carboxamide] |  | 1 to 99 |
| CCONC(=O)N1CCC2(CCc3cc(-c4cc5ccccc5cn4)ccc3O2)CC1 [Example 149, N-Ethoxy-6-(3-isoquinolyl)spiro[chromane-2,4′-piperidine]-1′-carboxamide] |  | 1 to 99 |
| O=C(NO)N1CCC2(CC1)OCc1cc(-c3cc4ccccc4cn3)ccc1O2 [Example 150, 6-(3-Isoquinolyl)spiro[4H-1,3-benzodioxine-2,4′-piperidine]-1′-carbohydroxamic acid] | 1000 to 10000 |  |
| O=C(NO)N1CCC2(CCc3cc(-c4cc5ccccc5cn4)ccc3O2)CC1 [Example 151, 6-(3-Isoquinolyl)spiro[chromane-2,4′-piperidine]-1′-carbohydroxamic acid] |  | 1000 to 10000 |
| Cc1c(-c2ccc3c(c2)CC2(CCN(C(N)=O)CC2)O3)ccc2cccnc12 [Example 152, 5-(8-Methyl-7-quinolyl)spiro[3H-benzofuran-2,4′-piperidine]-1′-carboxamide] |  | 1 to 99 |
| CONC(=O)N1CCC2(CC1)Cc1cc(-c3ccc4cccnc4c3C)ccc1O2 [Example 153, N-Methoxy-5-(8-methyl-7-quinolyl)spiro[3H-benzofuran-2,4′-piperidine]-1′-carboxamide] |  | 1000 to 10000 |
| CCONC(=O)N1CCC2(CC1)Cc1cc(-c3ccc4cccnc4c3C)ccc1O2 [Example 154, N-Ethoxy-5-(8-methyl-7-quinolyl)spiro[3H-benzofuran-2,4′-piperidine]-1′-carboxamide] |  | 1000 to 10000 |
| Cc1c(-c2ccc3c(c2)CC2(CCN(C(=O)NO)CC2)O3)ccc2cccnc12 [Example 155, 5-(8-Methyl-7-quinolyl)spiro[3H-benzofuran-2,4′-piperidine]-1′-carbohydroxamic acid] |  | 1000 to 10000 |
| CCNC(=O)N1CCC2(CC1)Cc1cc(-c3ccc4cccnc4c3C)ccc1O2 [Example 156, N-Ethyl-5-(8-methyl-7-quinolyl)spiro[3H-benzofuran-2,4′-piperidine]-1′-carboxamide] |  | 1000 to 10000 |
| CONC(=O)N1CCC2(CC1)Cc1cc(-c3cnc4ccccc4c3C)ccc1O2 [Example 157, N-Methoxy-5-(4-methyl-3-quinolyl)spiro[3H-benzofuran-2,4′-piperidine]-1′-carboxamide] |  | 1000 to 10000 |
| CCONC(=O)N1CCC2(CC1)Cc1cc(-c3cnc4ccccc4c3C)ccc1O2 [Example 158, N-ethoxy-5-(4-methyl-3-quinolyl)spiro[3H-benzofuran-2,4′-piperidine]-1′-carboxamide] |  | 1000 to 10000 |
| Cc1c(-c2ccc3c(c2)CC2(CCN(C(N)=O)CC2)O3)cnc2ccccc12 [Example 159, 5-(4-Methyl-3-quinolyl)spiro[3H-benzofuran-2,4′-piperidine]-1′-carboxamide] |  | 1000 to 10000 |
| CCNC(=O)N1CCC2(CC1)Cc1cc(-c3cnc4ccccc4c3C)ccc1O2 [Example 160, N-Ethyl-5-(4-methyl-3-quinolyl)spiro[3H-benzofuran-2,4′-piperidine]-1′-carboxamide] |  | 1000 to 10000 |
| Cc1c(-c2ccc3c(c2)CC2(CCN(C(=O)NO)CC2)O3)cnc2ccccc12 [Example 161, 5-(4-Methyl-3-quinolyl)spiro[3H-benzofuran-2,4′-piperidine]-1′-carbohydroxamic acid] |  | 1000 to 10000 |
| COc1c(-c2ccc3c(c2)CC2(CCN(C(N)=O)CC2)O3)ccc2cccnc12 [Example 162, 5-(8-Methoxy-7-quinolyl)spiro[3H-benzofuran-2,4′-piperidine]-1′-carboxamide] |  | 1000 to 10000 |
| CCNC(=O)N1CCC2(CC1)Cc1cc(-c3ccc4cccnc4c3OC)ccc1O2 [Example 163, N-Ethyl-5-(8-methoxy-7-quinolyl)spiro[3H-benzofuran-2,4′-piperidine]-1′-carboxamide] |  | 1000 to 10000 |
| Cc1c(-c2ccc3c(c2)CC2(CCN(C(N)=O)CC2)O3)ccc2ccnn12 [Example 164, 5-(7-Methylpyrazolo[1,5-a]pyridin-6-yl)spiro[3H-benzofuran-2,4′-piperidine]-1′-carboxamide] |  | 1000 to 10000 |
| CCNC(=O)N1CCC2(CC1)Cc1cc(-c3ccc4ccnn4c3C)ccc1O2 [Example 165, N-Ethyl-5-(7-methylpyrazolo[1,5-a]pyridin-6-yl)spiro[3H-benzofuran-2,4′-piperidine]-1′-carboxamide] |  | 1000 to 10000 |
| CONC(=O)N1CCC2(CC1)Cc1cc(-c3ccc4cccnc4c3OC)ccc1O2 [Example 166, N-Methoxy-5-(8-methoxy-7-quinolyl)spiro[3H-benzofuran-2,4′-piperidine]-1′-carboxamide] |  | 1000 to 10000 |
| CCONC(=O)N1CCC2(CC1)Cc1cc(-c3ccc4cccnc4c3OC)ccc1O2 [Example 167, N-Ethoxy-5-(8-methoxy-7-quinolyl)spiro[3H-benzofuran-2,4′-piperidine]-1′-carboxamide] |  | 1000 to 10000 |
